According to PMC3663898 (Antiviral research, 2013):
Converted amounts (≈) assume the structure as drawn. Like-named read-outs stand apart in the source and are kept apart here.

Tests used:
in vitro [1] = conditions: human
in vivo = conditions: male, Sprague-Dawley, rat; for C0 / clearance / Vd / half-life: iv
[2] = male, Sprague-Dawley, rat, in vivo
DENV = test: microbe, parasite or virus in culture; assay type: cell-based, DENV (serotype 2, New Guinea C); conditions: Dengue virus, BHK, 48 h; for EC50: read-out: DENV EC50; for EC90: read-out: DENV EC90
[3] = rat, in vivo; for rats with diarrhea: Sprague-Dawley, po, 200 mg/kg
in vitro [4] = conditions: hamster
in vitro [5] = conditions: bovine
TCRV = test: microbe, parasite or virus in culture; assay type: cell-based, Tacaribe virus (11573 strain); conditions: Mammarenavirus tacaribeense, Huh7.5, 48 h; for EC50: read-out: TARV EC50; for EC90: read-out: TARV EC90
[6] = tested on: CYP1A2, CYP2C9, CYP2C19, CYP2D6 and CYP3A4; test: in vitro; conditions: human
in vitro [7] = conditions: human, Caco-2

Structure (SMILES)	CC50 (in vitro [1]) [µM]	C0 (in vivo; 5 mg/kg) [ng/mL]	clearance (in vivo; 5 mg/kg) [mL/min/kg]	Tmax (in vivo; po, 25 mg/kg) [h]	F PO [2]	AUC IV ([2]; 5 mg/kg)	AUC PO ([2]; 25 mg/kg)	EC50 (DENV) [µM]	EC90 (DENV) [µM]	rats with diarrhea [3] [%]	adverse event at lower doses [3]	CC50 (in vitro [4]) [µM]	CC50 (in vitro [5]) [µM]	EC50 (TCRV) [µM]	EC90 (TCRV) [µM]	IC50 [6] [µM]	efflux ratio (in vitro [7])	Vd (in vivo; 5 mg/kg) [L/kg]	half-life (in vivo; 5 mg/kg) [h]	solubility (physchem; pH 4, aqueous buffer) [µM]	further results
OC[C@@H]1[C@@H](O)[C@H](O)[C@@H](O)CN1CCCCCCOc1cc(F)ccc1F [IHVR11029, (2R,3R,4R,5S)-1-(6-(2,5-difluorophenoxy)hexyl)-2-(hydroxymethyl)piperidine-3,4,5-triol]	> 500	1620	42.3	4.17	92/ND/ND %	1990/9180/ND/ND μg*h/mL	1990/9180/ND/ND μg*h/mL	0.75 ± 0.06	6.3 ± 3.5	50	sign of GI stress, such as anogenital staining or soft stool	> 500	> 500	3.3 ± 2.7	69 ± 37.7	> 10	–	–	–	–	–
CC(C)(C)C(=O)N(CCCCCCN1C[C@H](O)[C@@H](O)[C@H](O)[C@H]1CO)C1CCCCC1 [IHVR17028, N-cyclohexyl-N-(6-((2R,3R,4R,5S)-3,4,5-trihydroxy-2-(hydroxymethyl)piperidin-1-yl)hexyl)pivalamide]	> 500	1660	55.7	1.56	–	1540/903/ND/ND μg*h/mL	1540/903/ND/ND μg*h/mL	0.3 ± 0.03	1.7 ± 0.8	100	sign of GI stress, such as anogenital staining or soft stool	> 500	> 500	0.26 ± 0.08	26.7 ± 20.9	> 10	31.7	3	0.88	299 (≈ 128 µg/mL)	Cmax (in vivo; po, 25 mg/kg): 180 ng/mL; solubility (physchem; pH 7.4, aqueous buffer): 311 µM (≈ 133 µg/mL)
CC(C)(C)NC(=O)N(CCCCCCN1C[C@H](O)[C@@H](O)[C@H](O)[C@H]1CO)C1CCCCC1 [IHVR19029, 3-(tert-butyl)-1-cyclohexyl-1-(6-((2R,3R,4R,5S)-3,4,5-trihydroxy-2-(hydroxymethyl)piperidin-1-yl)hexyl)urea]	> 500	1790	58.2	–	4.6/71/133%	1383/945/1839/983 μg*h/mL	–	1.25 ± 1.1	22.5 ± 10.6	–	–	> 500	> 500	0.74 ± 0.3	52.5 ± 38.9	> 10	34.2	3	1.2	309 (≈ 137 µg/mL)	Tmax (in vivo): 0.167 h; Cmax (in vivo; im, 5 mg/kg): 1230 ng/mL; Tmax (in vivo; im, 5 mg/kg): 0.1 h; Cmax (in vivo; ip, 5 mg/kg): 1330 ng/mL; Tmax (in vivo; ip, 5 mg/kg): 0.17 h; Cmax (in vivo; po, 75 mg/kg): 260 ng/mL; Tmax (in vivo; po, 75 mg/kg): 2.1 h; solubility (physchem; pH 7.4, aqueous buffer): 303 µM (≈ 134 µg/mL); AUC IM [2]: 1383/945/1839/983 μg*h/mL; AUC IP ([2]; ip, 5 mg/kg): 1383/945/1839/983 μg*h/mL; AUC PO ([2]; 75 mg/kg): 1383/945/1839/983 μg*h/mL; mortality or clinical signs (Balb/c mice, single dose IP or IM up to 200mg/kg, 9-day observation): No mortality or clinical signs were observed; weight loss and GI alterations (mouse, in vivo): No significant weight loss and GI alterations
